Assay results taken from patent publication US20260132125A1, “PESTICIDALLY ACTIVE FUSED BICYCLIC HETEROAROMATIC COMPOUNDS” (priority 2022, published 2026).

Legend:
Type in all cases: in vivo
Spodoptera littoralis = assay: Example B6: activity against Spodoptera littoralis (Egyptian cotton leaf worm), cotton leaf discs; settings: foliar; for percent control (mortality, anti-feedant effect or growth inhibition) at 200 ppm: 72 h, L1 larvae, 3 days after infestation, read-out: control (at least one of mortality, anti-feedant effect, growth inhibition)
Method: Cotton leaf discs were placed onto agar in 24-well microtiter plates and sprayed with aqueous test solutions prepared from 10′000 ppm DMSO stock solutions. After drying the leaf discs were infested with five L1 larvae. The samples were assessed for mortality, anti-feeding effect, and growth inhibition in comparison to untreated samples 3 days after infestation. Control of Spodoptera littoralis by a test sample is given when at least one of the categories mortality, anti-feedant effect, and growth inhibition is higher than the untreated sample.

Chilo suppressalis = assay: Example B1: activity against Chilo suppressalis (striped rice stemborer), artificial diet; settings: for percent control (mortality, anti-feedant effect or growth inhibition) at 200 ppm: 144 h, L2 larvae, 6 days after infestation, read-out: control (at least one of mortality, anti-feedant effect, growth inhibition)
Method: 24-well microtiter plates with artificial diet were treated with aqueous test solutions prepared from 10′000 ppm DMSO stock solutions by pipetting. After drying, the plates were infested with L2 larvae (6-8 per well). The samples were assessed for mortality, anti-feeding effect, and growth inhibition in comparison to untreated samples 6 days after infestation. Control of Chilo suppressalis by a test sample is given when at least one of the categories mortality, anti-feedant effect, and growth inhibition is higher than the untreated sample.

Plutella xylostella = assay: Example B5: activity against Plutella xylostella (diamond back moth), artificial diet, eggs; settings: 192 h, 8 days after infestation, read-out: effect in at least one of the two categories (mortality or growth inhibition)
Method: 24-well microtiter plates with artificial diet were treated with aqueous test solutions prepared from 10′000 ppm DMSO stock solutions by pipetting. After drying, Plutella eggs were pipetted through a plastic stencil onto a gel blotting paper and the plate was closed with it. The samples were assessed for mortality and growth inhibition in comparison to untreated samples 8 days after infestation. The following compounds gave an effect of at least 80% in at least one of the two categories (mortality or growth inhibition) at an application rate of 200 ppm: P1, P2, P3, P4, P5, P6, P7, P8, P9, P10, P11, P12, P13, P14, P15, P16, P17, P18, P19, P20, P21, P22, P23, P24, P25, P26, P27, P28, P29, P30, P31, P32, P33, P34, P35, P36, P37, P38, P39, P40, P41, P42, P43, P44, P45, P46, P47, P48, P49, P50, P51, P52, P53, P54, P55, P57, P58, P59, P60, P61, P62, P63, P64, P65, P66, P67, P69, P70, P71, P72, P73, P74, P75, P77, P78, P81, P82, P83.

Diabrotica balteata = assay: Example B2: activity against Diabrotica balteata (corn root worm), maize sprouts; settings: 96 h, L2 larvae, 4 days after infestation, read-out: effect in at least one of the two categories (mortality or growth inhibition)
Method: Maize sprouts placed onto an agar layer in 24-well microtiter plates were treated with aqueous test solutions prepared from 10′000 ppm DMSO stock solutions by spraying. After drying, the plates were infested with L2 larvae (6 to 10 per well). The samples were assessed for mortality and growth inhibition in comparison to untreated samples 4 days after infestation. The following compounds gave an effect of at least 80% in at least one of the two categories (mortality or growth inhibition) at an application rate of 200 ppm: P1, P2, P3, P4, P5, P7, P8, P9, P10, P11, P12, P13, P14, P15, P16, P17, P18, P19, P20, P21, P22, P23, P24, P25, P26, P27, P28, P29, P30, P31, P33, P34, P35, P36, P37, P38, P39, P40, P41, P42, P43, P45, P46, P47, P48, P49, P50, P51, P52, P53, P55, P57, P58, P59, P60, P61, P62, P63, P64, P65, P66, P67, P69, P71, P75, P81, P82, P83.

SMILES | percent control (mortality, anti-feedant effect or growth inhibition) at 200 ppm (Spodoptera littoralis) [%] | percent control (mortality, anti-feedant effect or growth inhibition) at 200 ppm (Chilo suppressalis) [%] | percent effect (mortality or growth inhibition) at 200 ppm (Plutella xylostella) [%] | percent effect (mortality or growth inhibition) at 200 ppm (Diabrotica balteata) [%] | mortality at 3.12 ppm (Spodoptera littoralis) [%] | mortality at 50 ppm (Chilo suppressalis) [%] | mortality at 12.5 ppm (Chilo suppressalis; 12.5 ppm) [%] | mortality at 50 ppm (Spodoptera littoralis; 50 ppm) [%]
CCN(C)C(=O)c1cnc(-n2ncnc2[C@H](C)Nc2ncnc3c(C(F)(F)F)cc(Cl)cc23)s1 [Compound P6, 2-[5-[(1S)-1-[[6-chloro-8-(trifluoromethyl)quinazolin-4-yl]amino]ethyl]-1,2,4-triazol-1-yl]-N-ethyl-N-methyl-thiazole-5-carboxamide] | ≥ 80 | ≥ 80 | ≥ 80 | – | – | – | – | –
C[C@H](Nc1ncnc2c(C(F)(F)F)cc(Cl)cc12)c1ncnn1-c1ccc(C(N)=O)nn1 [Compound P20, 6-[5-[(1S)-1-[[6-chloro-8-(trifluoromethyl)quinazolin-4-yl]amino]ethyl]-1,2,4-triazol-1-yl]pyridazine-3-carboxamide] | – | ≥ 80 | ≥ 80 | ≥ 80 | – | – | – | –
C[C@H](Nc1ncnc2c(C(F)(F)F)cc(Cl)cc12)c1ncnn1-c1cc(C(=O)NC2(C#N)CC2)ncn1 [Compound P22, 6-[5-[(1S)-1-[[6-chloro-8-(trifluoromethyl)quinazolin-4-yl]amino]ethyl]-1,2,4-triazol-1-yl]-N-(1-cyanocyclopropyl)pyrimidine-4-carboxamide] | ≥ 80 | ≥ 80 | ≥ 80 | ≥ 80 | – | – | – | –
CON(C)C(=O)c1cc(-n2ncnc2[C@H](C)Nc2ncnc3c(C(F)(F)F)cc(Cl)cc23)ncn1 [Compound P27, 6-[5-[(1S)-1-[[6-chloro-8-(trifluoromethyl)quinazolin-4-yl]amino]ethyl]-1,2,4-triazol-1-yl]-N-methoxy-N-methyl-pyrimidine-4-carboxamide] | ≥ 80 | – | ≥ 80 | ≥ 80 | – | – | – | –
CONC(=O)c1cc(-n2ncnc2[C@H](C)Nc2ncnc3c(C(F)(F)F)cc(Cl)cc23)ncn1 [Compound P28, 6-[5-[(1S)-1-[[6-chloro-8-(trifluoromethyl)quinazolin-4-yl]amino]ethyl]-1,2,4-triazol-1-yl]-N-methoxy-pyrimidine-4-carboxamide] | ≥ 80 | ≥ 80 | ≥ 80 | ≥ 80 | – | – | – | –
C[C@H](Nc1ncnc2c(C(F)(F)F)cc(Cl)cc12)c1ncnn1-c1cc(C(=O)N2CCOCC2)ncn1 [Compound P32, [6-[5-[(1S)-1-[[6-chloro-8-(trifluoromethyl)quinazolin-4-yl]amino]ethyl]-1,2,4-triazol-1-yl]pyrimidin-4-yl]-morpholino-methanone] | ≥ 80 | ≥ 80 | ≥ 80 | – | – | – | – | –
C[C@H](Nc1ncnc2c(C(F)(F)F)cc(Cl)cc12)c1ncnn1-c1cc(C(=O)NC(C)(C#N)C2CC2)ncn1 (stereo partly drawn) [Compound P42, 6-[5-[(1S)-1-[[6-chloro-8-(trifluoromethyl)quinazolin-4-yl]amino]ethyl]-1,2,4-triazol-1-yl]-N-(1-cyano-1-cyclopropyl-ethyl)pyrimidine-4-carboxamide] | ≥ 80 | ≥ 80 | ≥ 80 | ≥ 80 | – | – | – | –
C[C@H](Nc1ncnc2c(C(F)(F)F)cc(Cl)cc12)c1ncnn1-c1cc(C(=O)NC2(C)CS(=O)(=O)C2)ncn1 [Compound P44, 6-[5-[(1S)-1-[[6-chloro-8-(trifluoromethyl)quinazolin-4-yl]amino]ethyl]-1,2,4-triazol-1-yl]-N-(3-methyl-1,1-dioxo-thietan-3-yl)pyrimidine-4-carboxamide] | – | – | ≥ 80 | – | – | – | – | –
C[C@H](Nc1ncnc2c(C(F)(F)F)cc(Cl)cc12)c1ncnn1-c1cc(C(=O)NC2(C)CSC2)ncn1 [Compound P45, 6-[5-[(1S)-1-[[6-chloro-8-(trifluoromethyl)quinazolin-4-yl]amino]ethyl]-1,2,4-triazol-1-yl]-N-(3-methylthietan-3-yl)pyrimidine-4-carboxamide] | ≥ 80 | – | ≥ 80 | ≥ 80 | – | – | – | –
CC(Nc1ncnc2c(C(F)(F)F)cc(Cl)cc12)c1nccnc1-c1cc(C(N)=O)ncn1 (stereo not drawn) [Compound P57, 6-[3-[1-[[6-chloro-8-(trifluoromethyl)quinazolin-4-yl]amino]ethyl]pyrazin-2-yl]pyrimidine-4-carboxamide] | ≥ 80 | ≥ 80 | ≥ 80 | ≥ 80 | 80 | 100 | – | –
CC(Nc1ncnc2c(I)cc(Cl)cc12)c1nccnc1-c1cc(C(N)=O)ncn1 (stereo not drawn) [Compound P58, 6-[3-[1-[(6-chloro-8-iodo-quinazolin-4-yl)amino]ethyl]pyrazin-2-yl]pyrimidine-4-carboxamide] | ≥ 80 | ≥ 80 | ≥ 80 | ≥ 80 | – | – | – | –
C[C@H](Nc1ncnc2c(Cl)cc(I)cc12)c1ncnn1-c1cnc(C(=O)NCC#N)cn1 [Compound P70, 5-[5-[(1S)-1-[(8-chloro-6-iodo-quinazolin-4-yl)amino]ethyl]-1,2,4-triazol-1-yl]-N-(cyanomethyl)pyrazine-2-carboxamide] | ≥ 80 | ≥ 80 | ≥ 80 | – | – | – | – | –
C[C@H](Nc1ncnc2c(Cl)cc(I)cc12)c1ncnn1-c1cnc(C(N)=O)cn1 [Compound P77, 5-[5-[(1S)-1-[(8-chloro-6-iodo-quinazolin-4-yl)amino]ethyl]-1,2,4-triazol-1-yl]pyrazine-2-carboxamide] | – | ≥ 80 | ≥ 80 | – | – | – | – | –
C[C@H](Nc1ncnc2c(C(F)(F)F)cc(Cl)cc12)c1ncnn1-c1cc(C(=O)N(C)CC2CC2)ncn1 [Compound P78, 6-[5-[(1S)-1-[[6-chloro-8-(trifluoromethyl)quinazolin-4-yl]amino]ethyl]-1,2,4-triazol-1-yl]-N-(cyclopropylmethyl)-N-methyl-pyrimidine-4-carboxamide] | – | – | ≥ 80 | – | – | – | – | –
CC(Nc1ncnc2c(C(F)(F)F)cc(Cl)cc12)c1nccnc1-c1ncccn1 (stereo not drawn) [WO 21/083936 P.130, reference compound] | – | – | – | – | 0 | 0 | – | –
C[C@H](Nc1ncnc2c(C(F)(F)F)cc(Cl)cc12)c1ncnn1-c1ncc(C#N)s1 [WO 22/268648 P10, reference compound] | – | – | – | – | – | – | 0 | –
C[C@H](Nc1ncnc2c(Cl)cc(I)cc12)c1ncnn1-c1ncc(C#N)s1 [WO 22/268648 P20, reference compound] | – | – | – | – | – | – | – | 0
